From ChEMBL document CHEMBL1857833, “Screening and optimization of specific chemical series against human African Trypanosomiasis (HAT)”
Values after ≈ are worked out from the molar mass of the structure shown. Values joined by “and” are separate entries in the source; they are usually repeats but may differ in a detail not shown here. Identical values can stand only once.

Tests used:
in vitro [1] = settings: human, t (1 / 2)
Description: DNDI: half life in human liver microsomes at a concentration of 1uM

in vitro [2] = settings: mouse, t (1 / 2)
Description: DNDI: half life in mouse liver microsomes at a concentration of 1uM

[3] = mouse, microsomes, 1 µM
Description: DNDI: in vitro intrinsic clearance in mouse liver microsomes at a concentration of 1uM

[4] = DNDI: Cytotoxicity against L929 mouse fibroblasts, CYTO-SP, 24 hour; type: toxicity, cell-based; settings: mouse, L929 mouse fibroblasts
[5] = DNDI: Solubility in phosphate buffered saline at pH7.4 measured by nephelometry at room temperature (NEPH-RT); type: physicochemical; settings: pH 7.4
Trypanosoma brucei [6] = assay: DNDI: Inhibition of Human African Trypanosomiasis, SBRI 427, in vitro; type: functional, organism-based
[7] = DNDI: Lipophilicity measured in Chromatographic hydrophobicity index (CHI) assay, pH 7.4; type: physicochemical; settings: buffer
in vitro [8] = settings: human, CLint in vitro
Description: DNDI: in vitro intrinsic clearance in human liver microsomes at a concentration of 1uM

[9] = DNDI: Cytotoxicity against L929 mouse fibroblasts, 72 hour.; type: toxicity, cell-based; settings: mouse, L929 mouse fibroblasts
Trypanosoma brucei [10] = assay: DNDI: Inhibition of Human African Trypanosomiasis, EATRO 110, in vitro; type: functional, organism-based
Trypanosoma brucei [11] = assay: DNDI: Inhibition of Human African Trypanosomiasis, Cross 22, in vitro; type: functional, organism-based
[12] = DNDI: half-life in mouse S9 microsomes at a concentration of 1uM; type: ADME, subcellular, Liver, S9 fraction
Trypanosoma brucei [13] = assay: DNDI: Mean survival time in days (MSD) of mice after intraperitoneal injection of Human African Trypanosomiasis (HAT), EATRO 110, in vivo at 20 mg/kg/day for 4 days.; type: functional, Mus musculus
Trypanosoma cruzi = assay: DNDI: Inhibition of Chagas Disease parasite Trypanosoma cruzi (Tulahuen LacZ, Clone C4), in vitro.; type: functional, organism-based
[14] = DNDI: Cytotoxicity against L-6 rat myoblasts from skeletal muscle cells; type: toxicity, cell-based, L6; settings: L-6 rat skeletal muscle myoblasts
[15] = tested on: Trypanosoma brucei rhodesiense; assay: DNDI: Inhibition of Human African Trypanosomiasis (HAT), STIB 900, in vitro; type: functional, organism-based
Plasmodium falciparum = assay: DNDI: Inhibition of the malaria parasite Plasmodium falciparum, in vitro; type: functional, organism-based; settings: K1
Leishmania donovani = assay: DNDI: Inhibition of formation of Leishmania donovani (strain MHOM/ET/67/L82) axenic amastigotes, in vitro.; type: functional, organism-based
[16] = DNDI: in vitro intrinsic clearance in human liver microsomes at a concentration of 10uM; type: ADME, Microsome
[17] = DNDI: half life in mouse liver microsomes at a concentration of 10uM; type: ADME, Microsome
[18] = DNDI: in vitro intrinsic clearance in mouse liver microsomes at a concentration of 10uM; type: ADME, Microsome; settings: read-out: CLint in vitro
[19] = DNDI: Solubility in phosphate buffered saline at pH7.4 measured by optical density (turbidimetry) at room temperature (OD-RT); type: physicochemical; settings: pH 7.4
[20] = DNDI: half life in human liver microsomes at a concentration of 10uM; type: ADME, Microsome
[21] = Trypanosoma brucei, SBRI 427, read-out: IC50

Row | half-life at 1 µM (in vitro [1]; liver microsomes) [min] | half-life at 1 µM (in vitro [2]; liver microsomes) [min] | CLint in vitro [3] [µL/min/mg] | solubility kinetic [5] [µM] | IC50 (Trypanosoma brucei [6]; [21]) [µg/mL] | chromatographic logD [7] | microsomal CLint at 1 µM (in vitro [8]; liver microsomes) [µL/min/mg] | IC50 (Trypanosoma cruzi) [µg/mL] | IC50 [15] [µg/mL] | IC50 (Plasmodium falciparum) [µg/mL] | IC50 (Leishmania donovani) [µg/mL] | CLint in vitro [16] [µL/min/mg] | half-life at 10 µM [17] [min] | microsomal CLint at 10 µM [18] [µL/min/mg] | solubility kinetic [19] [µM] | half-life at 10 µM [20] [min] | SMILES | IC50 at 24 h [4] [µg/mL] | IC50 at 72 h [9] [µg/mL] | IC50 [14] [µg/mL] | further results
1 | 166 | 15 | 55 | 25 (≈ 5.81 µg/mL) | > 5 | 2.78 | 5 |  |  |  |  |  |  |  |  |  | O/N=C(\CNC1CCCCC1)c1ccccc1 | > 50 |  |  | 
2 | 72 | 16 | 53 | > 200 | 4.92 (≈ 20.8 µM) | 4.02 | 12 |  |  |  |  |  |  |  |  |  | O/N=C(\NC1CCCCC1)c1ccc(F)cc1 | > 50 |  |  | 
3 | 315 | 44 | 19 | 50 (≈ 9.76 µg/mL) | > 5 | 1.64 | 3 |  |  |  |  |  |  |  |  |  | COC/C(=N/O)c1ccc(OC)cc1 | > 50 |  |  | 
4 |  | 8 | 102 |  | 1.21 (≈ 3.43 µM) |  |  |  |  |  |  |  |  |  |  |  | CCOc1ccc(-c2nc(CNC3[C@H]4C[C@@H]5C[C@@H](C[C@H]3C5)C4)co2)cc1 (stereo partly drawn) | 43.2 (≈ 123 µM) | 6.6 (≈ 18.7 µM) |  | IC50 (Trypanosoma brucei [6]): 1.46 µg/mL and 2 µg/mL; IC50 (Trypanosoma brucei [10]): 0.86 µg/mL (≈ 2.44 µM); IC50 (Trypanosoma brucei [11]): 2.15 µg/mL (≈ 6.1 µM)
5 |  |  |  |  | 1.06 (≈ 2.71 µM) |  |  |  |  |  |  |  |  |  |  |  | c1ccc2c(Oc3nc(NCCN4CCCC4)nc4ccsc34)cccc2c1 |  | > 10 |  | half-life at 1 µM [12]: 3.5 min
6 |  |  | 111 |  | 0.92 (≈ 4.21 µM) | 3.9 |  | > 30 | 13.6 (≈ 62.3 µM) | > 5 | 40.9 (≈ 187 µM) | 10 | 35 | 82 | > 200 | 289 | O/N=C(\NC1CCCCC1)c1ccccc1 | 50 (≈ 229 µM) | > 10 | 49.7 (≈ 227 µM) | half-life at 1 µM (in vitro [2]; microsomes): 8 min
7 |  |  |  |  | 0.58 (≈ 1.76 µM) | 3.99 |  | > 30 | 20.8 (≈ 63.1 µM) | > 5 | 19.9 (≈ 60.5 µM) | 16 | 10 | 275 | 50 (≈ 16.5 µg/mL) | 185 | O/N=C(/NC1CCCCC1)c1cccnc1Oc1ccccc1F | > 50 | > 10 | 54.3 (≈ 165 µM) | IC50 (Trypanosoma brucei [10]): 1.5 µg/mL (≈ 4.55 µM)
8 |  |  |  |  | 2.13 (≈ 7.04 µM) | 4.16 |  | 2.9 (≈ 9.59 µM) | 1.06 (≈ 3.51 µM) | 1.77 (≈ 5.85 µM) | 12.4 (≈ 41.1 µM) | 44 | 190 | 15 | 6.3 (≈ 1.91 µg/mL) | 66 | CCCCCC(C)NCc1coc(-c2ccc(OC)cc2)n1 (stereo not drawn) | 33 (≈ 109 µM) | > 10 | 16 (≈ 53 µM) | 
9 | 67 | 11 | 78 | 50 (≈ 14.1 µg/mL) | 2.02 (≈ 7.15 µM) | 4.67 | 13 |  |  |  |  |  |  |  |  |  | CC(C)(C)CN/C(=N\O)c1ccccc1-c1ccccc1 | > 50 |  |  | 
10 |  |  |  |  | 0.24 (≈ 0.689 µM) | 4.94 |  | 6.4 (≈ 18.4 µM) | 0.321 (≈ 0.921 µM) | 1.68 (≈ 4.82 µM) | 5 (≈ 14.3 µM) | 1 | 573 | 5 | < 1 | 4770 | CCCCCC(C)NCc1coc(-c2ccc(-c3ccccc3)cc2)n1 (stereo not drawn) | > 50 | 1.83 (≈ 5.25 µM) | 6.78 (≈ 19.5 µM) | IC50 (Trypanosoma brucei [6]): 0.25 µg/mL and 0.42 µg/mL; IC50 (Trypanosoma brucei [11]): 0.4 µg/mL (≈ 1.15 µM)
11 |  |  | 8 | 50 (≈ 12.7 µg/mL) | > 5 | 3.67 |  |  |  |  |  |  |  |  |  |  | O/N=C(\NC1CCCCC1)c1c(F)cccc1F | > 50 |  |  | half-life at 1 µM (in vitro [1]; microsomes): > 350 min; half-life at 1 µM (in vitro [2]; microsomes): 104 min; microsomal CLint at 1 µM (in vitro [8]; microsomes): < 5 µL/min/mg
12 | 61 | 25 | 35 | > 200 | > 5 | 4.26 | 14 |  |  |  |  |  |  |  |  |  | O/N=C(\NC1CCCCC1)c1cc(F)cc(F)c1 | > 50 |  |  | 

Row | SMILES | half-life at 1 µM (in vitro [1]; liver microsomes) [min] | half-life at 1 µM (in vitro [2]; liver microsomes) [min] | CLint in vitro [3] [µL/min/mg] | solubility kinetic [5] [µM] | IC50 (Trypanosoma brucei [6]; [21]) [µg/mL] | chromatographic logD [7] | microsomal CLint at 1 µM (in vitro [8]; liver microsomes) [µL/min/mg] | IC50 (Trypanosoma cruzi) [µg/mL] | IC50 [15] [µg/mL] | IC50 (Plasmodium falciparum) [µg/mL] | IC50 (Leishmania donovani) [µg/mL] | CLint in vitro [16] [µL/min/mg] | half-life at 10 µM [17] [min] | microsomal CLint at 10 µM [18] [µL/min/mg] | solubility kinetic [19] [µM] | half-life at 10 µM [20] [min] | IC50 at 24 h [4] [µg/mL] | IC50 at 72 h [9] [µg/mL] | IC50 [14] [µg/mL] | further results
13 | CCCCc1ccc(-c2nc(CNC[C@@H]3CC[C@H]4C[C@@H]3C4(C)C)co2)cc1 | 39 |  |  | 3 (≈ 1.1 µg/mL) |  | 6.68 | 22 | 2.61 (≈ 7.12 µM) | 0.361 (≈ 0.985 µM) | 0.389 (≈ 1.06 µM) | 4.84 (≈ 13.2 µM) |  |  |  |  |  | > 50 | > 10 | 2.89 (≈ 7.88 µM) | MSD (Trypanosoma brucei [13]): 3.5 days; IC50 (Trypanosoma brucei [11]): 0.31 µg/mL (≈ 0.846 µM)
